Data taken from ChEMBL document CHEMBL1201862, “PubChem BioAssay data set” (2004).
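Grown in 96-well plates, cells were treated for 48 hours with each compound at five concentrations. Insufficient inhibition: endpoint recorded as highest concentration tested. GI50 marks 50% less growth.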 Activity calls are given as the source filed them. Cut-off read from the data, not from the text of the source: active = GI50 up to about 1.1 µM and inactive = higher.

How the values were obtained:
Test in all cases: growth of human tumour cells (NCI), 48 h
[1] = system: M14
[2] = system: SN12C
[3] = system: EKVX
[4] = system: OVCAR-3
[5] = system: K562
[6] = system: HL-60
[7] = system: SNB-75
[8] = system: COLO 205
[9] = system: SW-620
[10] = system: SK-MEL-2
[11] = system: NCI-H226
[12] = system: U-251
[13] = system: KM12
[14] = system: ACHN
[15] = system: BT-549
[16] = system: HT-29
[17] = system: Hs-578T
[18] = system: PC-3
[19] = system: SK-MEL-5
[20] = system: T47D

Measured: GI50

O=C(/C=C\c1ccc(-c2ccccc2)cc1)c1cccs1
inactive: [1] > 100 µM | [2] 7.45 µM | [3] 53 µM | [4] 9.29 µM | [5] 3.7 µM | [6] 3.89 µM | [7] 28.6 µM | [8] > 39.2 µM | [9] 5.41 µM | [10] 39.4 µM | [11] > 69.8 µM | [12] 5.09 µM | [13] 4.42 µM | [14] 32.3 µM | [15] 15.6 µM | [16] 3.38 µM | [17] 9.59 µM | [18] > 100 µM | [19] > 70 µM

C=CCN1CN(c2ccccc2)C2(CCN(CCCC3(c4ccc(F)cc4)OCCO3)CC2)C1=O
inactive: [1] 15.5 µM | [2] 17.7 µM | [3] 15.1 µM | [4] 14.4 µM | [5] 12.8 µM | [6] 13.7 µM | [7] 15.3 µM | [8] 15.3 µM | [9] 18.7 µM | [11] 19.5 µM | [12] 15.3 µM | [20] 11.6 µM | [13] 15.8 µM | [14] 18.7 µM | [16] 5.61 µM | [18] 16.2 µM | [19] 15.1 µM

O=[N+]([O-])/C(C(Cl)=C(Cl)Cl)=C(/Nc1ccccc1)Sc1ccccc1
inactive: [1] 19.8 µM | [2] 26.9 µM | [3] 19.6 µM | [4] 15.7 µM | [5] 20.6 µM | [6] 20.6 µM | [8] 18.5 µM | [9] 25.1 µM | [11] 23 µM | [12] 14.6 µM | [20] 19.7 µM | [13] 18.2 µM | [14] 19.1 µM | [15] 25.5 µM | [16] 22.6 µM | [17] 40.4 µM | [18] 18.5 µM | [19] 20.3 µM

C(=C\c1cc[n+](CCc2ccccc2)cc1)/c1ccccc1
inactive: [1] 7.91 µM | [2] 4.02 µM | [3] 56.9 µM | [4] 5.26 µM | [5] 16.8 µM | [7] 24 µM | [8] 5.73 µM | [9] 12.1 µM | [10] 17.1 µM | [11] 13.8 µM | [12] 4.9 µM | [20] 5.58 µM | [13] 3.98 µM | [14] 26.9 µM | [15] 11.3 µM | [16] 6.79 µM | [17] 15.2 µM | [18] 15.2 µM | [19] 1.28 µM

N#CCCN(CCN(C(=O)Nc1ccccc1)c1ccccc1)C(=O)Nc1ccccc1
inactive: [1] 77.6 µM | [3] 69.5 µM | [4] > 100 µM | [5] 29.9 µM | [6] 13 µM | [7] > 100 µM | [8] 53.5 µM | [9] > 100 µM | [10] > 100 µM | [11] 79.4 µM | [12] 65.6 µM | [20] > 35.1 µM | [13] 48.3 µM | [14] 52.1 µM | [15] 42.6 µM | [16] > 100 µM | [18] 43.3 µM | [19] 60.7 µM

Cc1ccc(S(=O)(=O)Oc2nc3ccccc3nc2N(S(=O)(=O)c2ccc(C)cc2)S(=O)(=O)c2ccc(C)cc2)cc1
inactive: [1] 76.6 µM | [2] 44 µM | [3] 30.3 µM | [4] 41.5 µM | [5] > 10 µM | [6] 33 µM | [7] 37.2 µM | [8] > 100 µM | [9] 34.8 µM | [10] 81.8 µM | [11] 22.5 µM | [12] 39.9 µM | [13] 33.7 µM | [14] 45.9 µM | [15] 90.6 µM | [16] 28.2 µM | [17] 63.1 µM | [18] 38.4 µM | [19] 47.9 µM

COc1ccc2c(c1)C1c3ccccc3CCN1CCC2 (stereo unspecified)
inactive: [1] 32.1 µM | [2] 71.1 µM | [3] > 100 µM | [4] 73.8 µM | [5] 33 µM | [7] 19.3 µM | [8] 44.7 µM | [9] 28.2 µM | [10] 23.1 µM | [11] 45.3 µM | [12] 32.6 µM | [20] > 100 µM | [13] 29.4 µM | [14] 64.9 µM | [15] 24.9 µM | [16] 33.3 µM | [17] 42.9 µM | [18] 29.2 µM | [19] 29.2 µM

C=C(C)c1nc(C#N)c(N)o1
inactive: [1] > 100 µM | [2] > 100 µM | [3] > 100 µM | [4] > 100 µM | [5] > 100 µM | [8] > 100 µM | [9] > 100 µM | [10] > 100 µM | [11] > 100 µM | [12] > 100 µM | [20] > 100 µM | [13] > 100 µM | [14] > 100 µM | [15] > 100 µM | [16] > 100 µM | [17] > 100 µM | [18] > 100 µM | [19] > 100 µM

O=C(CC(C(=O)c1cccs1)c1ccsc1)c1ccco1 (stereo unspecified)
inactive: [1] 19.4 µM | [2] 35.5 µM | [3] 24.8 µM | [4] 54.8 µM | [6] 15.4 µM | [7] 28 µM | [8] 8.07 µM | [9] 30.1 µM | [11] 27 µM | [12] 21.4 µM | [20] 24.7 µM | [13] 22.7 µM | [14] 32.3 µM | [16] 4.8 µM | [17] 19.1 µM | [19] 27.7 µM

COC1OC(Cn2c(C)nc(Br)c2Br)C(O)C(O)C1O (stereo unspecified)
inactive: [1] > 100 µM | [3] > 100 µM | [4] > 100 µM | [5] > 100 µM | [7] > 100 µM | [8] > 100 µM | [9] > 100 µM | [10] > 100 µM | [12] > 100 µM | [20] > 100 µM | [13] > 100 µM | [14] > 100 µM | [15] > 100 µM | [16] > 100 µM | [17] > 100 µM | [18] > 100 µM | [19] > 100 µM

COc1ccc(NC(=S)NNC(=O)c2cc(-c3ccccc3)nc3ccccc23)cc1
inactive: [1] 15.4 µM | [2] 18.6 µM | [4] 12 µM | [5] 15.7 µM | [7] 16.1 µM | [8] 31.8 µM | [9] 14.6 µM | [10] 16 µM | [11] 20.1 µM | [12] 15.5 µM | [20] 14.9 µM | [13] 16.1 µM | [14] 22.1 µM | [15] 14.1 µM | [16] 19.9 µM | [17] 24 µM | [18] 19.2 µM | [19] 11.4 µM

Cn1c2c3ccccc3nc-2c(O)c2ccccc21 [HYDROXYCRYPTOLEPINE]
inactive: [1] > 100 µM | [2] 48.2 µM | [3] > 100 µM | [4] > 100 µM | [5] > 100 µM | [7] 34.1 µM | [8] 83.2 µM | [9] > 100 µM | [10] > 100 µM | [11] > 100 µM | [12] > 100 µM | [20] > 100 µM | [13] > 100 µM | [14] 48.6 µM | [16] > 100 µM | [18] > 100 µM | [19] 41.2 µM

CN(C)CCOc1ccc(-c2c(Oc3ccccc3)c(=O)oc3ccccc23)cc1
inactive: [1] 2.23 µM | [2] 14 µM | [3] 13.9 µM | [4] 12.4 µM | [5] 2.39 µM | [7] 9.59 µM | [8] 11 µM | [9] 11.4 µM | [10] 13.4 µM | [11] 16 µM | [12] 4.86 µM | [20] 12.7 µM | [13] 21.4 µM | [14] 11.9 µM | [15] 13.6 µM | [16] 12.5 µM | [17] 17.8 µM | [18] 9.93 µM | [19] 3.78 µM

Cc1ccc2c(/C=C/c3ccc(N(C)C)cc3)ccnc2c1C
inactive: [1] 51.4 µM | [2] 20.6 µM | [3] 40.4 µM | [4] 32.4 µM | [5] 6.81 µM | [6] 21.2 µM | [7] 15.4 µM | [8] 18.4 µM | [9] 20.4 µM | [11] 30.5 µM | [12] 38.7 µM | [20] 21.1 µM | [13] 6.78 µM | [14] 25.8 µM | [16] 16.6 µM | [17] 43.2 µM | [18] 18.7 µM | [19] 18.2 µM

COC(=O)CCN(CCC(=O)OC)C1CC1
inactive: [1] > 100 µM | [2] > 100 µM | [3] > 100 µM | [5] > 100 µM | [6] > 100 µM | [7] > 100 µM | [8] > 100 µM | [9] > 100 µM | [11] > 100 µM | [12] > 100 µM | [20] > 100 µM | [13] > 100 µM | [14] > 100 µM | [16] > 100 µM | [17] > 100 µM | [19] > 100 µM

COc1ccc(/C=N/n2c(Cc3ccccc3)n[nH]c2=O)cc1
inactive: [1] > 100 µM | [2] > 100 µM | [3] > 100 µM | [4] > 100 µM | [5] > 100 µM | [7] > 100 µM | [8] > 100 µM | [9] > 100 µM | [10] > 100 µM | [11] > 100 µM | [12] 37 µM | [20] > 100 µM | [13] > 100 µM | [14] > 100 µM | [15] 29.1 µM | [16] > 100 µM | [17] 32.3 µM | [18] > 100 µM
